Reference: US12187723B2 (BRISTOL-MYERS SQUIBB COMPANY, priority 2019, dated 2025)

Experiments:
[1] = molecular target: T1, human TLR7 (Homo sapiens, UniProt Q9NYK1); assay: TLR7 inhibition reporter assay (HEK-Blue SEAP); assay type: cell-based; details: HEK-Blue cells overexpressing human TLR7, gardiquimod 7.5 μM, 22 hour incubation
T1 construct: host or cells: HEK-Blue cells
T1 sequence (Q9NYK1 27-1049): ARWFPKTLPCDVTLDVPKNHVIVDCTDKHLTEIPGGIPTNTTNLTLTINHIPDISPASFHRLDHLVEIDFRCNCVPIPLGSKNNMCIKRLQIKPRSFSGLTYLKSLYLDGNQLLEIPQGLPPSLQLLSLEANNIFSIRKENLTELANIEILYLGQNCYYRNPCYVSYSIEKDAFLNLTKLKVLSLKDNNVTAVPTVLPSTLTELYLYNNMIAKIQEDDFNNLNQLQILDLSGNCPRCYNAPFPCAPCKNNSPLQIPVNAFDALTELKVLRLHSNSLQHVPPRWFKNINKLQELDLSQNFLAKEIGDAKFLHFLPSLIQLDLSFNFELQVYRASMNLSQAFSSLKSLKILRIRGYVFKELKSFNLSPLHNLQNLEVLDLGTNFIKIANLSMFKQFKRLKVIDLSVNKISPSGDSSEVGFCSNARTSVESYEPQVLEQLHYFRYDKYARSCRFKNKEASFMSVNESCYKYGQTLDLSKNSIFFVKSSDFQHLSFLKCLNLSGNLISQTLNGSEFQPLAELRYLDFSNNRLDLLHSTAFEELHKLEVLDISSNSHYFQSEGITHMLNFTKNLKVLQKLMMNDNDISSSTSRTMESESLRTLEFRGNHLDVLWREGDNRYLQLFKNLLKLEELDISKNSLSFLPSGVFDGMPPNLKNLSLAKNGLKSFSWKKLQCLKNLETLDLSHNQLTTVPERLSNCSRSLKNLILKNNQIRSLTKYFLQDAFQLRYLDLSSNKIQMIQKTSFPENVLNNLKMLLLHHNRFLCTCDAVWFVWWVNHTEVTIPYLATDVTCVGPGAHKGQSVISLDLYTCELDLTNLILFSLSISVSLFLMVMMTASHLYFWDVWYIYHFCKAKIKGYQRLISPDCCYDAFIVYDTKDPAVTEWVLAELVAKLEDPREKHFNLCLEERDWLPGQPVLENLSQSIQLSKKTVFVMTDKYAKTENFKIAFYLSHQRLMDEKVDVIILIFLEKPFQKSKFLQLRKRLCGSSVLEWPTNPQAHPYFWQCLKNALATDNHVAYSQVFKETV
Procedure, shortened: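 22 h, 37° C, 5% CO2 incubation; compounds 0.05 nM-50 μM final; TLR7 cells 15000/well, TLR8 20,000/well. Readout: SEAP via HEK-Blue Detection medium. % inhibition = signal reduction versus agonist + DMSO wells, referenced to known inhibitor.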

[2] = molecular target: T2, human TLR8 (Homo sapiens, UniProt Q9NR97); assay: TLR8 inhibition reporter assay (HEK-Blue SEAP); assay type: cell-based; details: HEK-Blue cells overexpressing human TLR8, R848 15.9 μM, 22 hour incubation
T2 construct: host or cells: HEK-Blue cells
T2 sequence (Q9NR97 27-1041): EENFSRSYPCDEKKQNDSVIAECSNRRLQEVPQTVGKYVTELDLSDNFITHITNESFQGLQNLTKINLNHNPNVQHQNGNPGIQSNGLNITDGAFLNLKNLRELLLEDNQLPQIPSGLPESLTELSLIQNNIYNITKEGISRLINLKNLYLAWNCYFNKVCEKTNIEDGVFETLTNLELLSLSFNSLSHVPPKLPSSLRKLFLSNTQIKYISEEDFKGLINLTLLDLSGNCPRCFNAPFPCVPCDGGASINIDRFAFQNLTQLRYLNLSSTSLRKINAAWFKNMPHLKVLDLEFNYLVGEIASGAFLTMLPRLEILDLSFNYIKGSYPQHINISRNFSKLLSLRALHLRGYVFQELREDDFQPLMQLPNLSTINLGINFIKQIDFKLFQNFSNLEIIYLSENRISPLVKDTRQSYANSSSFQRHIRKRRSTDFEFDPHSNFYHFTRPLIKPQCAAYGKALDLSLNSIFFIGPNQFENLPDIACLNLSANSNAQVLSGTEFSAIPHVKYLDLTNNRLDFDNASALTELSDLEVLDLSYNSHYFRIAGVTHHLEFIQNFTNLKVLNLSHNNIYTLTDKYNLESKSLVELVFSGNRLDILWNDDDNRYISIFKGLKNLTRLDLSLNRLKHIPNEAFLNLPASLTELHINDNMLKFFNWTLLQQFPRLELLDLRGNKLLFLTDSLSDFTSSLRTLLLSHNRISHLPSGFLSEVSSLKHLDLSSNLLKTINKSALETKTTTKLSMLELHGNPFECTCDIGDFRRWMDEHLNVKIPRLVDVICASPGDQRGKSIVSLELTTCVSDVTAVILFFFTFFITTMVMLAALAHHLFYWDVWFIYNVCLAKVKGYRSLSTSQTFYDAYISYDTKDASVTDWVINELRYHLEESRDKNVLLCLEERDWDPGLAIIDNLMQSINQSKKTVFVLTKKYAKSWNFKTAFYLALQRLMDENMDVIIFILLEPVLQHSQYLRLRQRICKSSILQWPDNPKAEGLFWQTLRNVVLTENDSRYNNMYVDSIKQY
Procedure, shortened: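 Compound treatment: 30 min, RT, 0.05 nM–50 μM final. Agonist: TLR7 gardiquimod 7.5 μM; TLR8 R848 15.9 μM; TLR9 ODN2006 5 nM. Incubation 22 h, 37 °C, 5% CO2. Readout SEAP, HEK-Blue Detection.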

SMILES | IC50 [1] | IC50 [2]
COc1cc(-c2cc3[nH]c(=O)n([C@@H]4CCCN(CC5CCCC5)C4)c3cc2C(C)C)cn2ncnc12 [Example 211, (R)-1-(1-(cyclopentylmethyl)piperidin-3-yl)-6-isopropyl-5-(8-methoxy-[1,2,4]triazolo[1,5-a]pyridin-6-yl)-1,3-dihydro-2H-benzo[d]imidazol-2-one] | 0.05 nM | 0.05 nM
COc1cc(-c2cc3[nH]c(=O)n([C@@H]4CCCN(C5CCOC5)C4)c3cc2C(C)C)cn2ncnc12 (stereo partly drawn) [Example 217, 6-isopropyl-5-(8-methoxy-[1,2,4]triazolo[1,5-a]pyridin-6-yl)-1-((3R)-1-(tetrahydrofuran-3-yl)piperidin-3-yl)-1,3-dihydro-2H-benzo[d]imidazol-2-one] | 11.2 nM | 5.4 nM
COc1cc(-c2cc3[nH]c(=O)n([C@@H]4CCCN(C5CCCOC5)C4)c3cc2C(C)C)cn2ncnc12 (single isomer, unassigned) [Example 218] | 5.33 nM | 5.19 nM
COc1cc(-c2cc3[nH]c(=O)n([C@@H]4CCCN(C5CCCOC5)C4)c3cc2C(C)C)cn2ncnc12 (single isomer, unassigned) [Example 219] | 0.05 nM | 0.15 nM
CCc1cc2c(cc1-c1cc(OC)c3ncnn3c1)[nH]c(=O)n2[C@@H]1CCCN(CCOC)C1 [Example 227, (R)-6-ethyl-5-(8-methoxy-[1,2,4]triazolo[1,5-a]pyridin-6-yl)-1-(1-(2-methoxyethyl)piperidin-3-yl)-1,3-dihydro-2H-benzo[d]imidazol-2-one] | 2.86 nM | 4.42 nM
Cc1c(-c2cc3[nH]c(=O)n([C@H]4CC[C@@H](NCC(C)(C)C)CC4)c3cc2C(C)C)cn2ncnc2c1C [Example 190, 5-(7,8-dimethyl-[1,2,4]triazolo[1,5-a]pyridin-6-yl)-6-isopropyl-1-((1s,4s)-4-(neopentylamino)cyclohexyl)-1,3-dihydro-2H-benzo[d]imidazol-2-one] | 5.72 nM | 0.08 nM
COc1cc(-c2cc3[nH]c(=O)n(C4CCC(N5CCNC(=O)C5)CC4)c3cc2C(C)C)cn2ncnc12 (single isomer, unassigned) [Example 234, 6-isopropyl-5-(8-methoxy-[1,2,4]triazolo[1,5-a]pyridin-6-yl)-1-(4-(3-oxopiperazin-1-yl)cyclohexyl)-1,3-dihydro-2H-benzo[d]imidazol-2-one] | 42.7 nM | 10.5 nM
COc1cc(-c2cc3[nH]c(=O)n(C4CCC(N5CCC6(CC5)COC6)CC4)c3cc2C(C)C)cn2ncnc12 (stereo not shown) [Example 240, 1-(4-(2-oxa-7-azaspiro[3.5]nonan-7-yl)cyclohexyl)-6-isopropyl-5-(8-methoxy-[1,2,4]triazolo[1,5-a]pyridin-6-yl)-1,3-dihydro-2H-benzo[d]imidazol-2-one] | 3.52 nM | 0.13 nM
CCc1cc2c(cc1-c1cc(OC)c3ncnn3c1)[nH]c(=O)n2[C@@H]1CCCN(C2CCOC2)C1 (stereo partly drawn) [Example 213, 6-ethyl-5-(8-methoxy-[1,2,4]triazolo[1,5-a]pyridin-6-yl)-1-((3R)-1-(tetrahydrofuran-3-yl)piperidin-3-yl)-1,3-dihydro-2H-benzo[d]imidazol-2-one] | 37.3 nM | 4.62 nM
COc1cc(-c2cc3[nH]c(=O)n(C4CCC(N5CC6(CCOCC6)C5)CC4)c3cc2C(C)C)cn2ncnc12 (single isomer, unassigned) [Example 236, 1-(4-(7-oxa-2-azaspiro[3.5]nonan-2-yl)cyclohexyl)-6-isopropyl-5-(8-methoxy-[1,2,4]triazolo[1,5-a]pyridin-6-yl)-1,3-dihydro-2H-benzo[d]imidazol-2-one] | 3.54 nM | 0.35 nM
COc1cc(-c2cc3[nH]c(=O)n([C@H]4CC[C@@H](NC(C)C)CC4)c3cc2C(C)C)cn2ncnc12 [Example 192, 6-isopropyl-1-((1s,4s)-4-(isopropylamino)cyclohexyl)-5-(8-methoxy-[1,2,4]triazolo[1,5-a]pyridin-6-yl)-1,3-dihydro-2H-benzo[d]imidazol-2-one] | 1.97 nM | 0.44 nM
Cc1cc2c(cc1-c1cc(C)c3ncnn3c1)[nH]c(=O)n2[C@H]1CCCN(C(C)C)C1 [Example 13, (S)-1-(1-isopropylpiperidin-3-yl)-6-methyl-5-(8-methyl-[1,2,4]triazolo[1,5-a]pyridin-6-yl)-1,3-dihydro-2H-benzo[d]imidazol-2-one] | 124 nM | 62.9 nM
CCc1cc2c(cc1-c1cc(OC)c3ncnn3c1)[nH]c(=O)n2[C@@H]1CCCN(CC2CCCC2)C1 [Example 209, (R)-1-(1-(cyclopentylmethyl)piperidin-3-yl)-6-ethyl-5-(8-methoxy-[1,2,4]triazolo[1,5-a]pyridin-6-yl)-1,3-dihydro-2H-benzo[d]imidazol-2-one] | 7.96 nM | 20.4 nM
COc1cc(-c2cc3[nH]c(=O)n([C@H]4CC[C@@H](N(C)C)CC4)c3cc2C(C)C)cn2ncnc12 [Example 191, 1-((1s,4s)-4-(dimethylamino)cyclohexyl)-6-isopropyl-5-(8-methoxy-[1,2,4]triazolo[1,5-a]pyridin-6-yl)-1,3-dihydro-2H-benzo[d]imidazol-2-one] | 1.49 nM | 0.58 nM
COc1cc(-c2cc3[nH]c(=O)n([C@H]4CC[C@H](N(CC5CC5)CC5CC5)CC4)c3cc2C(C)C)cn2ncnc12 [Example 206, 1-((1r,4s)-4-(bis(cyclopropylmethyl)amino)cyclohexyl)-6-isopropyl-5-(8-methoxy-[1,2,4]triazolo[1,5-a]pyridin-6-yl)-1,3-dihydro-2H-benzo[d]imidazol-2-one] | 1.3 nM | 0.57 nM
COc1cc(-c2cc3[nH]c(=O)n([C@H]4CC[C@H](N(C)C)CC4)c3cc2C(C)C)cn2ncnc12 [Example 202, 1-((1r,4r)-4-(dimethylamino)cyclohexyl)-6-isopropyl-5-(8-methoxy-[1,2,4]triazolo[1,5-a]pyridin-6-yl)-1,3-dihydro-2H-benzo[d]imidazol-2-one] | 3.51 nM | 0.81 nM
COc1cc(-c2cc3[nH]c(=O)n([C@H]4CC[C@H](NCC(C)C)CC4)c3cc2C(C)C)cn2ncnc12 [Example 204, 1-((1r,4s)-4-(isobutylamino)cyclohexyl)-6-isopropyl-5-(8-methoxy-[1,2,4]triazolo[1,5-a]pyridin-6-yl)-1,3-dihydro-2H-benzo[d]imidazol-2-one] | 3.21 nM | 1.23 nM
